Experiments:
[1] = system: OVX rats; test: Tissue analysis of tibiae (H&E, TRAP staining); assay type: in vivo, Wistar rats; conditions: oral, alendronate 2.5 mg/kg-body weight per day, 13 weeks
Method: (§1) Female Wistar rats (BioLASCO, Taipei, Taiwan) were used in the following experiments. In an experiment group, the rats were anesthetized with 40 mg/kg-body weight of pentobarbital sodium, and ovaries in both sides of the dorsum of the rats were removed to induce osteoporosis, and a decrease in estrogen of the postmenopausal female rats was observed. The rats of which ovaries were removed (i.e., ovariectomized rat) are represented as “OVX rats” hereinafter. In the control group (i.e., a sham group), the skin and muscle on the ovary positions at both sides of the dorsum of the rats were incised and then sutured, while the ovaries were not removed.
(§2) After one week from the surgery, the control group was administrated water orally every day. […] During the administration, the body weight of each rat was measured once a week until the last day of the administration. Distilled water was added into the extract to form a suspension, and the rats were administrated orally with 1 ml/100 g-body weight of the suspension.
The left tibiae of the rats in Example 3 were taken and fixed with 4 vol % metaformaldehyde (in a phosphate buffer solution, PBS, pH 7.4) for 48 hours, and calcium was removed in a solution (pH 7.4) of 10 wt % EDTA (ethylenediamine tetraacetic acid) at 4° C. for 4 weeks. After calcium was removed, the bones were cut to generate a cross-section, and tissue staining was carried out with hematoxylin and eosin. […] The microscope images were analyzed with a color image analysis system (Image-Pro Plus version 5.1, Media Cybernetics, Maryland, USA), and the volume of trabecular bones and the thickness of […] of metaphysis of the rats were measured. […]
In another aspect, the above cross-section was stained with a TRAP (tartrate-resistant acid phosphatase) kit (Sigma-Aldrich, St. Louis, Mo., USA), and the number of osteoclasts was measured (see Cole et al., Tartrate-resistant acid phosphatase in bone and cartilage following decalcification and cold-embedding in plastic. J Histochem Cyrochem, 1987: 35, 203-6, which is entirely incorporated hereinto by reference).

[2] = system: OVX rats; test: Biochemical values of blood and urine (ALP, calcium, DPD); assay type: in vivo, Wistar rats; conditions: oral, alendronate 2.5 mg/kg-body weight per day, 13 weeks
Method: as §1, §2
The activity of ALP (alkaline phosphatase) and the content of calcium and creatinine in the blood and urine of the rats were measured with a clinical trial kit (Roche Diagnostics, Mannheim, Germany) and a spectrophotometric analyzer (Cobas Mira Plus, Roche, Rotkreuz, Switzerland), and the calcium content in the urine and blood of the rats was also measured with a method using o-cresolphthalein complexone (Randox, UK). ALP is a bio-indicator or molecular marker of an early activation stage of preosteoblasts, and based on ALP activity, the activation situation of preosteoblasts can be observed. The calcium content in the urine is represented as “mg/mmol creatinine in the urine.”
Moreover, the content of deoxypyridinoline (DPD) in the urine was measured with ELISA (enzyme linked immunosorbent assay) (an ELISA kit is purchased from Metra, San Diego, Calif., USA), and is represented as “[…] creatinine in the urine.” The results are shown in Table 5. […]

[3] = system: OVX rats; test: Body weight and vagina weight of ovariectomized rats after 13 weeks of oral administration; assay type: in vivo, Wistar rats; conditions: alendronate 2.5 mg/kg-body weight per day
Method: as §1, §2
After the end of the administration in Example 2, the rats were anesthetized with a high dosage of pentobarbital sodium (65 mg/kg-body weight) and were sacrificed. Blood samples of the rats were then collected, and tibiae and vertebrae of the rats were dissected, and vaginas were taken out from the rats and the weight of the vaginas was measured.

[4] = system: OVX rats; test: Weight ratio of bone ash and calcium content of fifth vertebra; assay type: in vivo, Wistar rats; conditions: bone ash, per bone volume, oral, alendronate 2.5 mg/kg-body weight per day, 13 weeks
Method: as §1, §2
The fifth sections of the vertebrae of the rats in Example 3 were dissected in an ethanol bath and dried at 100° C. overnight, and the dry weight of the vertebrae was measured. […] After the cremation, bone ash was collected, and the weight ratio of the bone ash (represented as the percentage of the dry weight of the vertebrae) was measured. […]

[5] = system: OVX rats; test: Density and content of minerals in tibiae (dual-energy X-ray absorptiometer); assay type: in vivo, Wistar rats; conditions: oral, alendronate 2.5 mg/kg-body weight per day, 13 weeks
Text: Female Wistar rats (BioLASCO, Taipei, Taiwan) were used in the following experiments. […] The rats of which ovaries were removed (i.e., ovariectomized rat) are represented as “OVX rats” hereinafter. In the control group (i.e., a sham group), the skin and muscle on the ovary positions at both sides of the dorsum of the rats were incised and then sutured, while the ovaries were not removed.

[6] = system: osteoclast precursors; test: Differentiation test of osteoclasts (RANKL/M-CSF induced, TRAP staining); assay type: cell-based, Wistar rats; conditions: for effect of ICI 182,780 on the inhibition of osteoclast formation: 1 nM ICI 182,780 (antagonist of estrogen receptors), result in words
Method: Bone marrow was taken out from the femurs and tibiae of Wistar rats, and bone marrow cavities were washed with a α-minimum essential medium (Hyclone, Logan, Utah, USA) comprising a 20 mmol HEPES buffer solution, 10 vol % heat-inactivated fetal bovine serum, 2 mmol glutamine, 100 U/ml penicillin, and 100 µg/ml streptomycin. After 24 hours, inadhesive hematopoietic cells that were washed were collected, and were used as osteoclast precursors.
The aforesaid precursor cells were incubated in 24-wells culture plates with a density of 1×10^6 cells/well, and the culture plates comprised soluble human recombinant RANKL (50 ng/ml, PeproTech EC, London, UK) and M-CSF (20 ng/ml, PeproTech EC). Under the induction of M-CSF and RANKL, the precursor cells may differentiate into osteoclasts.
Then, various concentrations of the Flemingia macrophylla extract or Lespedeza flavanone A were added into the culture plates, and culture medium was replaced once every 3 days. On the ninth day, osteoclasts were stained with a TRAP staining kit, and the formation of osteoclasts was observed. The cells were then fixed with 10 vol % formaldehyde (in a phosphate buffer solution) for three minutes, and were stained with Naphthol AS-Mx phosphate and a tartaric acid solution at 37° C. for 1 hour. TRAP-positive multinucleated osteoclasts with more than three nuclei were regarded as osteoclasts (see Asagiri et al., The molecular understanding of osteoclast differentiation, Bone, 2007, 40: 251-64, which is entirely incorporated hereinto by reference).
To clarify the mechanism of Lespedeza flavanone A, an experiment was carried out with 1 nM ICI 182,780 (an antagonist of estrogen receptors) (see Howell et al., ICI 182,780 (Faslodex): development of a novel, “pure” antiestrogen, Cancer, 2000, 89: 817-825, which is entirely incorporated hereinto by reference), and influence of ICI 182,780 on the formation of osteoclasts was observed, and 10 nM 17β-estradiol was used for comparison.

SMILES | osteoclast number/bone surface ([1]; TRAP staining, tibia) | thickness of dermal bones ([1]; tibia metaphysis) | trabecular bone volume/tissue volume ([1]; tibia metaphysis) | DPD content in urine ([2]; ELISA) | ALP ([2]; blood serum) | calcium content in urine [2] | average body weight after 13 weeks from the surgery [3] | average vagina weight [3] | calcium content [4] | mineral content [5] | effect of ICI 182,780 on the inhibition of osteoclast formation [6] | the percentage of osteoclast formation ([6]; 0.1 μM with ICI 182,780 (1 nM), day 9) | the percentage of osteoclast formation ([6]; 0.1 μM, day 9, control = 100) | the percentage of osteoclast formation ([6]; 1.0 μM with ICI 182,780 (1 nM), day 9) | the percentage of osteoclast formation ([6]; 1.0 μM, day 9, control = 100) | the percentage of osteoclast formation ([6]; 10.0 μM with ICI 182,780 (1 nM), day 9) | the percentage of osteoclast formation ([6]; 10.0 μM, day 9, control = 100) | the percentage of osteoclast formation ([6]; 10.0 nM with ICI 182,780 (1 nM), day 9) | the percentage of osteoclast formation ([6]; 10.0 nM, day 9, control = 100)
NCCCC(O)(P(=O)(O)O)P(=O)(O)O [alendronate] | 2.7 ± 0.4 mm | 215.0 ± 10.2 μm | 36.1 ± 1.1 % | 281.2 ± 52.3 mg/mmol creatinine | 163.5 ± 24.0 U/L | 45.2 ± 14.8 mg/mmol creatinine | 377.8 ± 36.5 g | 0.18 ± 0.01 g | 206.1 ± 24.2 mg/mL | 0.38 ± 0.01 g |  |  |  |  |  |  |  |  | 
COc1ccc([C@@H]2CC(=O)c3c(O)c(CC=C(C)C)c(O)c(CC=C(C)C)c3O2)c(O)c1 [LDF-A, 5,7,2-trihydroxy-6,8-di-r,r-dimethylallyl-4-methoxyflavanone] |  |  |  |  |  |  |  |  |  |  | did not inhibit the inhibition effect | 65.0 ± 11.5% | 70.7 ± 9.5 % | 49.0 ± 6.2% | 60.0 ± 5.2 % | 26.0 ± 8.9% | 27.0 ± 2.6 % |  | 
C[C@]12CC[C@@H]3c4ccc(O)cc4CC[C@H]3[C@@H]1CC[C@@H]2O [17β-estradiol] |  |  |  |  |  |  |  |  |  |  | clearly inhibited the inhibition effect |  |  |  |  |  |  | 83.0 ± 13.2 % | 57.7 ± 8.1 %
